Data published in the supplement of paper PMC10307832.

How the values were obtained:
Test in all cases: relative viability (nuclei count vs DMSO), 5 days (fraction); higher = more cells survive
[1] = compound: CC1CC(=O)N(C2=CN=C(N=C2N1C3CCCC3)NC4=C(C=C(C=C4)C(=O)NC5CCN(CC5)C)OC)C [NPK76-II-72-1] + CC(=O)Nc1cccc(-n2c(=O)n(C3CC3)c(=O)c3c(Nc4ccc(I)cc4F)n(C)c(=O)c(C)c32)c1 [Trametinib] (partner 0.02 µM)
Summary of the method: (§1)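 Medians of duplicate plates are given as relative viability. That measure is the nuclei count in treated wells divided by the count in vehicle wells. Counts were taken on 4× images of lung cancer cell lines in 1536-well plates, 5 days after pin-tool dosing the day after seeding with one drug alone or a fixed anchor-drug dose plus five library-drug doses (not always all listed) in √10 steps.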

[2] = compound: CC1CC(=O)N(C2=CN=C(N=C2N1C3CCCC3)NC4=C(C=C(C=C4)C(=O)NC5CCN(CC5)C)OC)C [NPK76-II-72-1] + Cc1nc(NC(=O)N2CCC[C@H]2C(N)=O)sc1-c1ccnc(C(C)(C)C(F)(F)F)c1 [Alpelisib] (partner 2 µM)
Summary of the method: as §1

[3] = compound: CC1CC(=O)N(C2=CN=C(N=C2N1C3CCCC3)NC4=C(C=C(C=C4)C(=O)NC5CCN(CC5)C)OC)C [NPK76-II-72-1] + N=C(N)NC(=N)NCCc1ccccc1 [Phenformin] (partner 250 µM)
Summary of the method: as §1

BI-2536 + Vorinostat = compound: CC[C@@H]1C(=O)N(C)c2cnc(Nc3ccc(C(=O)NC4CCN(C)CC4)cc3OC)nc2N1C1CCCC1 [BI-2536] + O=C(CCCCCCC(=O)Nc1ccccc1)NO [Vorinostat] (partner 1 µM)
Summary of the method: as §1

Row | Cell Line | relative viability ([1]; first compound 0.01 µM) | relative viability ([1]; first compound 0.03162 µM) | relative viability ([1]; first compound 0.1 µM) | relative viability ([1]; first compound 0.3162 µM) | relative viability ([1]; first compound 1 µM) | relative viability ([2]; first compound 0.01 µM) | relative viability ([2]; first compound 0.03162 µM) | relative viability ([2]; first compound 0.1 µM) | relative viability ([2]; first compound 0.3162 µM) | relative viability ([2]; first compound 1 µM) | relative viability ([3]; first compound 0.01 µM) | relative viability ([3]; first compound 0.03162 µM) | relative viability ([3]; first compound 0.1 µM) | relative viability ([3]; first compound 0.3162 µM) | relative viability ([3]; first compound 1 µM) | relative viability (BI-2536 + Vorinostat; first compound 0.01 µM) | relative viability (BI-2536 + Vorinostat; first compound 0.03162 µM) | relative viability (BI-2536 + Vorinostat; first compound 0.1 µM) | relative viability (BI-2536 + Vorinostat; first compound 0.3162 µM) | relative viability (BI-2536 + Vorinostat; first compound 1 µM)
1 | NCI-H2405 | 0.662 | 0.618 | 0.601 | 0.59 | 0.702 | 0.654 | 0.853 | 0.753 | 0.744 | 0.921 | 0.379 | 0.386 | 0.4 | 0.35 | 0.419 | 0.981 | 0.608 | 0.35 | 0.278 | 0.337
2 | NCI-H3122 | 0.186 | 0.216 | 0.242 | 0.261 | 0.236 | 0.709 | 0.724 | 0.789 | 0.838 | 0.776 | 0.374 | 0.378 | 0.389 | 0.378 | 0.38 | 0.928 | 0.779 | 0.179 | 0.149 | 0.151
3 | PC-3 [JPC-3] | 0.701 | – | 0.705 | 0.737 | 0.703 | 1.01 | 0.949 | 0.987 | 0.985 | 1.09 | 0.475 | 0.484 | 0.487 | 0.453 | 0.472 | 0.857 | 0.677 | 0.416 | 0.306 | 0.291
4 | PC-14 | 0.741 | 0.848 | 0.698 | 0.678 | 0.798 | 0.943 | 0.956 | 0.946 | 0.916 | 1.04 | 0.562 | 0.462 | 0.585 | 0.585 | 0.628 | 0.809 | 0.387 | 0.0698 | 0.0322 | 0.0218
5 | RERF-LC-KJ | 0.874 | 0.854 | 0.838 | 0.809 | 0.946 | 0.727 | 0.928 | 0.773 | 0.683 | 0.86 | 0.405 | 0.416 | 0.425 | 0.388 | 0.52 | 0.731 | 0.531 | 0.348 | 0.224 | 0.255
6 | SK-LU-1 | 0.454 | 0.508 | 0.526 | 0.437 | 0.473 | 1.04 | 1.03 | 0.945 | 1.01 | 1.18 | 0.517 | 0.585 | 0.662 | 0.528 | 0.537 | 0.727 | 0.643 | 0.271 | 0.247 | 0.247
7 | SK-MES-1 | 0.543 | 0.583 | 0.489 | 0.593 | 0.555 | 0.835 | 0.847 | 0.868 | 0.907 | 0.883 | 0.649 | 0.718 | 0.646 | 0.643 | 0.722 | 1.17 | 0.934 | 0.441 | 0.136 | 0.188
8 | SW 1573 | 0.471 | 0.511 | 0.633 | 0.483 | 0.658 | 0.7 | 0.891 | 0.7 | 0.764 | 0.819 | 0.33 | 0.438 | 0.33 | 0.319 | 0.452 | 0.677 | 0.437 | 0.101 | 0.0801 | 0.113
